Measured values taken from patent US11591366B2, “Macrocyclic compounds and methods of preventing or treating pain” (SOCPRA SCIENCES SANTÉ ET HUMAINES S.E.C., priority 2017, dated 2023).

Key:
rNTS2 receptor = target: T1, rNTS2 receptor (Rattus norvegicus, UniProt Q63384); assay: Competitive radioligand binding assay on the rNTS2 receptor; settings: 1 μM macrocycle dose; read-out: NTS2 % displ at 1 μM (radiolabeled neurotensin displaced)
T1 construct: expressed in transfected cells; host or cells: DRG-F11 cells, transient transfection, membranes
T1 sequence (Q63384 1-416): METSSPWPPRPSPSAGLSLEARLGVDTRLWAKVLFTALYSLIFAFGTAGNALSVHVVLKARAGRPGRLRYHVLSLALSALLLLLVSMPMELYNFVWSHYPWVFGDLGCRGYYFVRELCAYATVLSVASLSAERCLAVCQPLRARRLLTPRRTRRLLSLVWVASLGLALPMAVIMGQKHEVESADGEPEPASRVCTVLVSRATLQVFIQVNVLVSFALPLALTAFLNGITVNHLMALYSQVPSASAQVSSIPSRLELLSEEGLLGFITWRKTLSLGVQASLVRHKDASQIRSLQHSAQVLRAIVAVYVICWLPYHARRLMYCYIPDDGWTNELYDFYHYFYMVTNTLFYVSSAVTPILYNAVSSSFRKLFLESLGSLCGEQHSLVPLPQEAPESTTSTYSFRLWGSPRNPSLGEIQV
Method: DRG-F11 cells were cultured in DMEM supplemented with 10% FBS, 100 U/mL penicillin, 100 μg/mL streptomycin, and 20 mM HEPES.
Membranes were prepared by scraping cells off the culture dish with 50 mM Tris ph 7.5 and centrifuged at 15,000 g for 5 min at 4° C. The pellet was resuspended in 10 mM Tris, 1 mM EDTA pH 7.5 and sonicated for 30 s prior to be centrifugated at 15,000 g for 30 min at 4° C. The pellet was then re-suspended in binding 9 buffer. […] All other steps in binding experiments were unchanged comparing to the one using the NTS1 receptor.

hNTS1 (Gαq pathway) = target: T2, hNTS1 (Gαq pathway) (Homo sapiens, UniProt P30989); assay: BRET biosensor assay, Gαq dissociation; format: cell-based
T2 construct: expressed in transfected cells; host or cells: CHO-K1, transient transfection with PEI
Method: CHO-K1 cells were cultured in DMEM-F12 supplemented with 10% FBS, 100 U/mL penicillin, 100 μg/mL streptomycin, and 20 mM HEPES at 37° C. in a humidified chamber at 5% CO2. Cells were seeded into T75 flasks at a density of 20 000 cells/cm^2; 24 h later, cells were transfected with plasmids coding for hNTS1-Green fluorescent protein 10(GFP10)/Rluc (Renilla Luciferase)II-β-arrestin 1 or hNTS1-GFP10/RlucII-β-arrestin2, or with hNTS1/Gαq-RlucII/Gβ1/IGFP10-Gγ1 or hNTS1/Gα13-RlucII/Gβ1/GFP10-Gγ1 using polyethylenimine (PEI). Cells were transferred into 96-well plates at a concentration of 50 000 cells/well 24 h after transfection and incubated at 37° C. overnight. […] After stimulation, coelenterazine 400A was added in each well to a final concentration of 5 μM and the plate was read using filter selected for BRET2 measurement (BRET2 High efficiency filter set, λemRlucII: 410±80 nm, λemGFP10: 515±40 nm) on a Mithras 2 plate reader (Berthold Technologies, Tennessee, USA). BRET2 ratio was determined as GFP10em/RlucIIem. […] EC50 (Effective Concentration 50) values were determined using the dose response-stimulation log(agonist) vs response (three parameters) and represent the mean±SEM of at least three separate experiments, each performed in triplicate.
NTS1 is capable of activating several signaling pathways, thus the activation of Gαq, Gα13, β-arrestin 1 and β-arrestin 2 pathways was monitored. […]

[1] = target: T3, hNTS1 (β-arrestin 2 recruitment) (Homo sapiens, UniProt P30989); assay: BRET biosensor assay, β-arrestin 2 recruitment; format: cell-based
T3 construct: expressed in transfected cells; host or cells: CHO-K1, transient transfection with PEI
Method: CHO-K1 cells were cultured in DMEM-F12 supplemented with 10% FBS, 100 U/mL penicillin, 100 μg/mL streptomycin, and 20 mM HEPES at 37° C. in a humidified chamber at 5% CO2. Cells were seeded into T75 flasks at a density of 20 000 cells/cm^2; 24 h later, cells were transfected with plasmids coding for hNTS1-Green fluorescent protein 10(GFP10)/Rluc (Renilla Luciferase)II-β-arrestin 1 or hNTS1-GFP10/RlucII-β-arrestin2, or with hNTS1/Gαq-RlucII/Gβ1/IGFP10-Gγ1 or hNTS1/Gα13-RlucII/Gβ1/GFP10-Gγ1 using polyethylenimine (PEI). Cells were transferred into 96-well plates at a concentration of 50 000 cells/well 24 h after transfection and incubated at 37° C. overnight. They were then washed with PBS and 90 μL HBSS was added in each well. […] After stimulation, coelenterazine 400A was added in each well to a final concentration of 5 μM and the plate was read using filter selected for BRET2 measurement (BRET2 High efficiency filter set, λemRlucII: 410±80 nm, λemGFP10: 515±40 nm) on a Mithras 2 plate reader (Berthold Technologies, Tennessee, USA). BRET2 ratio was determined as GFP10em/RlucIIem. […] EC50 (Effective Concentration 50) values were determined using the dose response-stimulation log(agonist) vs response (three parameters) and represent the mean±SEM of at least three separate experiments, each performed in triplicate.
NTS1 is capable of activating several signaling pathways, thus the activation of Gαq, Gα13, β-arrestin 1 and β-arrestin 2 pathways was monitored. The ability of compounds of the invention to activate the NTS1 receptor was assessed using Bioluminescence Resonance Energy Transfer (BRET)-based biosensors, reporting the dissociation of G proteins (Table III, column EC50 Gq) and the recruitment of β-arrestins to the receptor (Table III, column EC50 βarr).

Plasma stability assay = format: in vitro ADME; settings: rat plasma at 37° C.
Method: Rat plasma was obtained by centrifugation of rat blood (13000 rpm, 5 min, 4° C.). […] Proteolytic degradation was quenched by adding 70 μL of acetonitrile/ethanol (1:1), 0.5% nicotinamide solution and vortexing. […] Data were analyzed using GraphPad Prism 7's one phase decay equation.

Sprague-Dawley rats [2] = assay: Tail-flick test (acute pain); format: in vivo; settings: rat
Method: (§1) Experiments were performed with adult male Sprague-Dawley rats, weighing 225-300 g (Charles River laboratories, St-Constant, Canada). Rats were housed two per cage on Aspen shavings in a quiet room and kept on a 12 h light/dark cycle and allowed ad libitum access to food and water. The experimental procedures in this study were approved by the Animal Care Committee of Université de Sherbrooke (animal care protocol 035-13) and were in accordance with policies and directives of the Canadian Council on Animal Care.
Acute pain was assessed using the tail-flick test (Tail-Flick Analgesia meter V2.00, Colombus Instruments, Columbus, Ohio, USA). Tail-flick test measures sensitivity to a high-intensity light beam focused on the rat tail. The tail-flick apparatus was set at a light intensity of 6 and a cutoff of 10 sec. The latency, in seconds, to flick the tail out of the path of the light beam corresponds to the measure of pain sensitivity or analgesia.
Before testing, animals were individually acclimatized to manipulations and behavioral apparatus 5 min/day for three consecutive days. On the test day, latencies baseline measures were taken before drug injection to provide a mean baseline. […] The effects of compounds or saline on thermal nociception were assessed every 10 min for up to 60 min following i.t. administration.
Tail-flick latencies were converted into the percent maximal possible effect (% MPE) at the time of maxima peak of analgesia. % MPE were calculated according to the following formula: % MPE=[(Test latency)−(Saline latency)]/[(Cutoff)−(Saline latency)]×100. Data are expressed as mean±SEM of 3-8 animals for each different compound.
(§2) Data are expressed as mean±standard errors of the mean (SEM). All graphs and statistical analysis were performed using GraphPad Prism™ 7 (GraphPad software, La Jolla, Calif., USA). […] A difference in response was considered significant with p-values *p<0.05, **p<0.01, and ***p<0.001. […] Then, ED values were determined using the dose-response-stimulation log(agonist) vs response (three parameters).

Sprague-Dawley rats [3] = assay: Formalin test (tonic pain); format: in vivo; settings: rat, i.t., 30 μg/kg
Method: as §1
5 min after intrathecal injection of compounds at 30 μg/kg, the rats received 50 μl of diluted 2% formaldehyde (i.e. 5% formalin; Bioshop, Burlington, Ontario) into the plantar surface of the right hind paw. […] Nociceptive behaviors were assessed using a weighted score as described previously. […] The weighted average pain intensity score ranging from 0 to 3 was then calculated by multiplying the time spent in each category by the category weight, summing these products, and dividing by the total time in a given time interval. The pain score was thus calculated from the following formula (1T1+2T2+3T3)/180 where T1, T2, and T3 are the durations (in seconds) spent in behavioral categories 1, 2, or 3, respectively, during each 180-sec block. […]
Data are expressed as mean±standard errors of the mean (SEM). […]

Sprague-Dawley rats [4] = assay: Body temperature (hypothermia); format: in vivo; settings: rat; text says i.v., figure legend and method i.t.
Method: Body temperature was measured using a thermistor probe inserted into the rectum of adult Sprague-Dawley rats. Prior to testing, animals were individually acclimatized to manipulations and thermistor probe 5 min/day for three consecutive days. On the test day, temperature was measured before (baseline) and each 10 min for up to 60 min following intrathecal drug administration of compounds. […] Changes in body temperature (Δ body temp) were determined from baseline for each time and each animal. Data represent the mean±SEM of 3-16 rats for each condition.
as §2

rats = assay: Blood pressure (hypotension); format: in vivo, rat; settings: 0.01 mg/kg
Method: Mean, systolic and diastolic arterial blood pressure and a heart rate were measured through a catheter (PE 50 filled with heparinized saline) inserted in the right carotid artery and connected to a Micro-Med™ transducer (model TDX-300, USA) linked to a blood pressure Micro-Med™ analyzer (model BPA-100c). Another catheter (PE 10 filled with heparinized saline) was inserted in the left jugular vein for injection of test compounds at 0.01 mg/kg (volume 1 mL/kg, 5-10 s) or 0.9% saline. Blood pressure was recorded each second for up to 900 seconds following intravenous injection.

T3 sequence (P30989 whole entry): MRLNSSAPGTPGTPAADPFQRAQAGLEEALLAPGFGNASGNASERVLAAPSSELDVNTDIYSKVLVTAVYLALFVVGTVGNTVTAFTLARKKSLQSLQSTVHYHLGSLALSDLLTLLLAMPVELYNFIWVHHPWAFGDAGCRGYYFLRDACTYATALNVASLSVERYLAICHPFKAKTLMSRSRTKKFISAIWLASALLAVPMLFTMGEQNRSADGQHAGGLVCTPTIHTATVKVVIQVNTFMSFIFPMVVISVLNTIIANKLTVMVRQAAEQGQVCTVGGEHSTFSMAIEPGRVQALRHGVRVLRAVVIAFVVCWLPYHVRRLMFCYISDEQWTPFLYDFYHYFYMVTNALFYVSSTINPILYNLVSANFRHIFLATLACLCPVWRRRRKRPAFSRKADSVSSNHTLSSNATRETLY
T3 sequence (P32121 whole entry partner): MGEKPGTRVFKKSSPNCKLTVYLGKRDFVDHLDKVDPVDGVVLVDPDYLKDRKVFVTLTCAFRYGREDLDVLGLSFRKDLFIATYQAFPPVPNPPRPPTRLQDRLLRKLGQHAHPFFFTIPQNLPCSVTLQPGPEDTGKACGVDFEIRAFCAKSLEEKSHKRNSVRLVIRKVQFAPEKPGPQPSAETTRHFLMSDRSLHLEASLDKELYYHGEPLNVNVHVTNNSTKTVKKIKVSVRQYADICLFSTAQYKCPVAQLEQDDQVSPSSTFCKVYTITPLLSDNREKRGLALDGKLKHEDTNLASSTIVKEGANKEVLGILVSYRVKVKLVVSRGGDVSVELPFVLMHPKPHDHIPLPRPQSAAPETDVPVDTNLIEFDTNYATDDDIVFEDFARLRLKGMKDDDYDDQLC
T2 sequence (P30989 whole entry): as the sequence (P30989 whole entry) above

`CCC(C)[C@H](NC(=O)[C@@H]1Cc2ccc(O)c(c2)CC=CCNCCC[C@H](N)C(=O)N[C@@H](CCCCN)C(=O)N2CCC[C@H]2C(=O)N1)C(=O)N[C@@H](CC(C)C)C(=O)O` (some centres unmarked) [Compound 7, c[Orn(All)KPY(All)]IL] gave an inhibition at 1 µM (rNTS2 receptor) of 66%, an EC50 (hNTS1 (Gαq pathway)) of 3 ± 0.05 nM and an EC50 [1] of 3 ± 0.05 nM. For the same compound, the half-life at […] (Plasma stability assay) was 30 min, the “ED50, tail-flick latency (from AUC)” value (Sprague-Dawley rats [2]; i.t. injection) was 4.63 µg/kg and the “Maximal possible effect (MPE)” value (Sprague-Dawley rats [2]; i.t., 30 μg/kg, 10 min post-injection) was 50%. For the same compound, the “Dose at which the analgesic effect reached a plateau” value (Sprague-Dawley rats [2]; i.t., tail-flick) was “around 10 μg/kg”, the “Tail-flick latency versus saline/baseline” value (Sprague-Dawley rats [2]; intrathecal, 30 μg/kg) was “sustainably increased” and the “Pain score during the inflammatory phase (AUC)” value (Sprague-Dawley rats [3]) was “significantly reduced”. For the same compound, the “ED50, hypothermia (from AUC)” value (Sprague-Dawley rats [4]) was 1.96 μ/kg, the “Hypotension (I.V.)” value (rats) was “Triphasique” and the “Arterial blood pressure response” value (rats; rat, i.v.) was “triphasic”. For the same compound, the “Blood pressure drop, first phase” value (rats; rat, i.v.) was “about −25 mmHg” and the “Blood pressure in phase 3” value (rats; rat, i.v.) was “slowly returned towards baseline”.
